Results published in patent publication US12378247B2, “Mesylate salt of para-topolin, compositions containing said salt and use thereof” (USTAV EXPERIMENTALNI BOTANIKY AV CR, V. V. I., priority 2020, dated 2025).
Where a name gives a salt, the structure may show the parent alone.

Key:
[1] = test system: K562 (chronic myelogenous leukaemia); assay: Calcein AM cytotoxicity assay, K562; type: cell-based; details: K562, 3-day Calcein-AM assay; read-out: Cytotoxic activity IC50
From the text: Because toxic compounds negatively influence metabolic processes of cells, many standard cytotoxicity assays are based on measurement of metabolisation rate of various artificial substrates. Resulting product is then quantified, for example, by means of spectrometry. The assays can be easily modified for use in 96-well plates. For evaluation of cytotoxicity of the […] of this invention, a microtiter assay based on quantification of metabolisation of Calcein AM was used. The assay is widely used in drug screening programs and in chemosensitivity testing. In live cells, Calcein AM is enzymatically hydrolysed and accumulation of the resulting calcein is manifested by green fluorescence. […]
Approximately 10,000 cells in 80 μL of medium were seeded into 96-well microtitre plates. […] The fluorescence of free calcein was then quantified using a Fluoroscan Ascent fluorometer (Microsystems), and the percentage of surviving cells in each well was calculated by dividing the OD obtained from each cell with exposed cells by the mean OD obtained from control wells×100%. […]

Disproportionation study = type: physicochemical; details: 50 mg in 1 ml distilled water, ca. 48 hours, recrystallized
Procedure: A 50 mg sample of crystalline para-topolin mesylate salt was dissolved in 1 ml of distilled water, kept in solution for ca. 48 hours and then crystallized and checked by XRPD for disproportionation.

SMILES	IC50 [1]	Disproportionation (XRPD) (Disproportionation study)
Oc1ccc(CNc2ncnc3nc[nH]c23)cc1 [para-topolin, 6-(4-Hydroxybenzylamino) purine]	140 µM	–
Oc1ccc(CNc2ncnc3nc[nH]c23)cc1 [para-topolin mesylate, 6-(4-hydroxybenzylamino) purine (para-topolin) mesylate (methylsulphonate)]	–	No signs of disproportionation
